The text below walks through data of patent US10238641B2, “Materials and methods for diagnosis, prevention and/or treatment of stress disorders and conditions associated with A-beta peptide aggregation” (The United States of America as represented by the …, priority 2008, dated 2019).

The test system of series [1] is sensorimotor abilities in mice. The experiment in a line: Open field activity test. Type of series: in vivo. The settings on record: data not shown.
A further series concerns fear memory in mice. Put plainly: Contextual fear conditioning, freezing behavior. Type of series: in vivo. As for the experimental part: Mice (n=8, by condition) were treated with vehicle or cotinine (1 and 5 mg/kg/day) for 8 days and then subjected to Fear conditioning training as described. After 24 hours (h) mice were tested for freezing behavior when re-exposed to the same context (the chamber) every day for […].
To study the effect of cotinine on contextual fear memory, we pretreated mice with vehicle or cotinine at 1 and 5 mg/kg/day for 8 days. After this time, mice were trained for contextual fear conditioning (FC). Briefly, mice were trained to associate the context (the chamber) with an aversive unconditioned stimulus (1 mA foot shock for 2 seconds). After the FC training, the mice were re-exposed to the context every day for 7 consecutive days. The mice were treated daily with vehicle or cotinine at 1 and 5 mg/kg during the FC training and re-exposure to the context. The fear memory of the mice expressed as freezing behavior was assessed each day after re-exposure to the context. The fear memory after 24 h of the FC training is considered a measure of retention of the fear memory. The reduction of fear memory expressed as a reduction in the freezing behavior after the retention trial is evaluated as the extinction of the fear memory.

For the next series, the system named is nAChRs. It is filed as cell-based, rat.
For series [2], the system named is rat cortical cells exposed to Aβ. The experiment in a line: Aβ toxicity assay, double calcein-AM and PI staining. Type of series: cell-based. The settings on record: 5 μM Aβ + 10 μM cotinine, 24 h; Aβ alone 63%. How it is done: (§1) Primary cortical embryonic rat neurons were incubated with 5 μM Aβ in the presence or absence of various concentrations cotinine for […] as described (Echeverria et al. (2005)). Cell viability was assessed using the MTT assay (Sigma). As an alternative approach cell viability after exposure to Aβ and cotinine was assessed using the vital dye calcein-AM (green fluorescence) to stain live cells and propidium iodide to stain dead cells. MTT values were normalized to control values considered 100%.
In the double calcein-AM and Propidium iodide (PI) staining, PI binds to nucleic acid and is commonly used for identifying dead cells, since it is impermeable to the membranes of viable cells. Calcein-AM is converted to calcein by live cells, binds to the cellular calcium, and stains the cells by emitting a green fluorescence. […] After incubation cells were washed with PBS and the number of calcein-stained (green) and nuclei stained with PI (red) were analyzed by fluorescence microscopy. More than 600 cells per condition were analyzed in several 20× focal planes and recorded.
To investigate the effect of cotinine on Aβ neurotoxicity, rat cortical cells were grown in conditions that permitted us to obtain a neuron-enriched culture (around 95% neuron and 5% glial cells) for 7-10 days. […] After 24 h, cell survival was assessed by using MTT and PI and calcein-AM cell viability assays.

Series [3] concerns rat cortical cells exposed to Aβ1-42. Put plainly: Aβ toxicity assay, MTT cell viability. It is filed as cell-based. As for the experimental part: as §1
It has been discovered that cotinine protects brain cortical cells against the toxicity of the Amyloid beta peptide. The cortical cells were exposed to 5 microM Aβ for 24 hours and 48 hours and analyzed for cell viability using two viability tests. Cell viability was quantified by MTT and propidium iodide (PI) and calcein-AM staining assays. MTT assay measures the mitochondrial conversion of the tetrazolium salt MTT (3-(4,5-dimethylthiazol-2-yl)-2,5-diphenyl tetrazolium bromide) to formazan. To perform the MTT assay the cell culture medium was replaced with medium containing MTT (0.5 mg/mL). Following 1-4 h of incubation at 37° C., MTT formazan crystals were dissolved in DMSO and absorbance at 570 nm was measured. Absorbance values are a measure of cell viability. MTT results are expressed as percentage of vehicle treated controls. MTT assays were performed by measuring the levels of formazan after dissolving the precipitates in DMSO. The double calcein—AM and PI staining, involves staining with PI (a fluorescent nucleic acid dye used for the staining of dead cells) and calcein-AM a compound that inside of live brain cells, is converted to the green fluorescent compound calcein. After 30 minutes of incubation of the cells with these compounds were washed and analyzed by fluorescence microscopy. […] Cotinine inhibits Abeta oligomerization and prevents its toxicity on cortical neurons.
Embryonic rat cortical neurons were cultured following the protocol described (Brewer (1995)) but using embryonic cortical tissues obtained from Brain Bits LLC (Springfield, Ill., USA). The brain tissues were dissociated by 0.05% (v/v) trypsin digestion and dissociated by repeated passages through a pipette tip. Cortical cells (2×10^5 cells, 1,250 cells/mm^2) were plated in Neurobasal E medium, supplemented with 2% B27, and 1 mM Glutamax and plated onto 20-mm tissue culture wells coated with poly-D-lysine (0.1 mg/ml). Then cortical cells were incubated at 37° C. in a humidified incubator with 95% air/5% CO2 for 7-10 days, before being used for cell viability and protein expression analysis.
For the Aβ neurotoxicity assay, after 7 days in vitro (DIV) the conditioned media of cortical cells was replaced with Neurobasal E medium, supplemented with 2% B27 without antioxidants (B27-AO; Invitrogen, Carlsbad, Calif.) for 2 h. […]
Cell viability was quantified by MTT and propidium iodide (PI) and calcein-AM staining. […] Following 1-4 h incubation at 37° C., MTT formazan crystals were dissolved in DMSO and absorbance at […] was measured. MTT results are expressed as a percentage of vehicle-treated controls.
To investigate the effect of cotinine on Aβ neurotoxicity, rat cortical cells were grown in conditions that permitted us to obtain a neuron-enriched culture (around 95% neuron and 5% glial cells) for 7-10 days. […] After 24 h, cell survival was assessed by using MTT and PI and calcein-AM cell viability assays. […]

For series [4], the system named is fear-induced anxiety in mice. The experiment in a line: Elevated plus maze after fear conditioning (fear-induced anxiety). Type of series: in vivo. As for the experimental part: Mice were trained for FC. After the retention test, the mice were tested for anxiety levels in the EPM. The number of entries into the open and closed arms and the exploratory behavior of the mice were determined using a video tracking software that measures movement in each section of the EPM.
To determine the effect of cotinine treatment on the levels of anxiety in the mice after re-exposure to a fear memory, we performed the same EPM test but 24 h after fear conditioning training (shock in the chamber) and immediately after re-exposure to the context (chamber), a reminder of the unconditioned aversive stimulus (the electric shock).

Broadly, the viability is the share of living cells, or the viability signal relative to a control. Regarding `CN1C(=O)CC[C@H]1c1cccnc1` [cotinine], in series [1], the “sensorimotor abilities (open field activity test)” value is reported as “no changes in sensorimotor abilities were detected”. The “freezing in the retention test versus vehicle” value with fear memory in mice (cotinine 1 mg/kg/day, 24 h after FC training, p=0.0191) was “significantly lower percentage of freezing”. In addition, in the series on fear memory in mice (cotinine 5 mg/kg, day 6 of re-exposure, p=0.0218), the “freezing in the extinction test versus vehicle” value was “significantly lower percentage of freezing”. Also, the “neuroprotective actions in presence of nAChR antagonists alpha-Bungarotoxin or mecamylamine” value with nAChRs is listed as “not affected”. For the same compound, the “cell survival, % of vehicle-treated control cells (PI and calcein-AM)” value in series [2] is reported as 83%. Moreover, the “cell survival, % of vehicle-treated control cells (MTT)” value in series [3] (5 μM Aβ + 10 μM cotinine, 24 h, 7 DIV cortical cells, Aβ alone 76%) stood at 85%. Also, in series [3] (Aβ pre-incubated 3 h at 4° C. without cotinine, then added to media containing 10 μM cotinine), the “effect on Aβ neurotoxicity when cotinine is added after pre-aggregation of Aβ” value is recorded as “not able to block Aβ neurotoxicity”. For the same compound, the “increase in cell viability versus Aβ alone” value in series [3] (Aβ pre-incubated with 10 μM cotinine 3 h at 4° C.) is 22%. The same compound had a viability at 10 µM in series [3] (Rattus norvegicus, Aβ pre-incubated with 10 μM cotinine 3 h at 4° C., then 24 h on cells, Aβ alone 66%±3.6) of 87.3%. Further, the “lowest cotinine concentration protecting cortical cells against Aβ toxicity (MTT)” value in series [3] (added together with 5 μM Aβ, 24 h) turned out to be 1 µM. Also, the “difference in time in the closed arms, untreated compared with cotinine (EPM after FC)” value in series [4] (cotinine 1 mg/kg, p=0.0060) is “highly significant”; in series [4] (cotinine 5 mg/kg, p=0.0111), “highly significant”. For the same compound, the “time in the open arms, vehicle compared with cotinine (EPM after FC)” value is “significantly less time in the open arms” in series [4] (cotinine 1 mg/kg, p=0.0101) and “no significant differences” in series [4] (cotinine 5 mg/kg, p=0.0545). Further, the “time exploring, vehicle compared with cotinine (EPM after FC)” value in series [4] (cotinine 1 mg/kg, p=0.0145) is “significantly less time exploring”; in series [4] (cotinine 5 mg/kg, p=0.0025), “significantly less time exploring”.
